According to patent US5215981A, “Polyether antibiotic MI215-NF3 substance, production process thereof, and agent for control of chicken coccidiosis” (Hokko Chemical Industry Co., Ltd., priority 1988, dated 1993):

Tested on: Eimeria tenella
Assay: Anticoccidial activity in chicken inoculated with Eimeria tenella oocysts
Format: in vivo
Conditions: for Rate (%) of relative body weight gain / Survival rate (%): 7 days after infection; for Lesion scores: cecum, 7th day after infection; for ACI (Anticoccidial Index): ACI=(relative weight gain+survival rate)-(lesion scores+oocyst scores)
Description: The activity of MI215-NF3 substance for controlling chicken coccidiosis was tested as summarized below.
1. Newly-hatched chicken (male) were preliminarily raised for 1 week, and […] chicken were used in the test.
2. The body weights of the chicken were individually measured at the beginning of the test. To make up each test group, ten chicken were selected and alloted in each group so as to minimize variations among the test groups.
3. Chicken were orally inoculated with 5×10^4 oocysts of Eimeria tenella per chick through a stomach probe tube.
4. After the oocyst inoculation, each chick was allowed to take ad libitum a feed which had been prepared by mixing a predetermined amount of MI215-NF3 substance (sodium salt) with a special feed containing no anticoccidial agent. Incidentally, the chicken were also allowed to drink water ad libitum.
5. Up to the 7th day after the oocyst inoculation, the number of oocysts in feces from each chick and the state of the feces were observed everyday.
6. Each chick was anatomized on the 7th day after the infection. Anatomical procedures were as follows.
1) The body weight of each chick was measured.
2) Each chick was sacrificed by dislocation of neck cervical fracture.
3) Each chick was subjected to celiotomy and the cecum was enucleated. The cecum was visually inspected for any lesions on both outer and inner walls of cecum.
4) The cecum thus inspected was individually disintegrated in a homogenizer, whereby a cecum suspension was prepared. The number of oocysts in the suspension was counted.
5) Based on the results of the above inspections, the value of ACI (Anticoccidial Index) was determined in accordance with the evaluation method proposed by Merck & Co., Inc., U.S.A., namely, by the following equation:
ACI=(rate (%) of relative body weight gain+survival rate (%) of
chick)-(lesion scores+oocyst scores)
Upon determination of the above ACI value, the "rate of weight gain" of the chicken in each group of chicken during the test period for estimation of the drug efficacy and the "rate of relative body weight gain" used for the calculation of ACI were evaluated in accordance with the following equations: […]
______________________________________
Rate (%) of body weight gain = [(mean body weight of
chicken at the end of the test - mean body
weight of the chicken at the beginning of
the test) .div. mean body weight of the chicken
at the beginning of the test] × 100.
Rate (%) of relative body weight gain =
[(rate of body weight gain of the treated group
or an infected but non-treated group) .div. rate
of body weight gain of a non-infected and non-
On the other hand, the term "lesion scores" means a value which is obtained by evaluating, in terms of indexes, the results of visual inspection of lesions on an enucleated cecum sample. The term "oocyst scores" means a value which is obtained by evaluating, in terms of indexes, the number of oocysts actually counted. Details of the procedure for the determination of ACI values are described, for example, in the literature compiled by Kiyoshi Tsunoda, "Chicken Coccidiosis", pp 95-101, Chikusan Shuppan Sha (May, 1983).

SMILES	Oocyst scores (100 ppm in feed)	Rate (%) of relative body weight gain (100 ppm in feed) [%]	Survival rate (%) (100 ppm in feed)	Lesion scores (100 ppm in feed)	ACI (Anticoccidial Index) (100 ppm in feed)	Oocyst scores (50 ppm in feed)	Rate (%) of relative body weight gain (50 ppm in feed) [%]	Survival rate (%) (50 ppm in feed)	Lesion scores (50 ppm in feed)	ACI (Anticoccidial Index) (50 ppm in feed)
CC[C@@]1([C@@H]2O[C@@H]([C@H]3O[C@@](O)(CO)[C@H](C)C[C@@H]3C)C[C@@H]2C)CC[C@H]([C@]2(C)CC[C@]3(C[C@H](O)[C@@H](C)[C@@H]([C@@H](C)[C@@H](OC)[C@H](C)C(=O)O)O3)O2)O1 [Monensin]	20	96.13	100	32.0	144.1	–	–	–	–	–
CC[C@@H](C(=O)[C@@H](C)[C@@H](O)[C@H](C)[C@@H]1O[C@@H]([C@@H](CC)C(=O)O)CC[C@@H]1C)[C@H]1O[C@]2(C=C[C@@H](O)[C@]3(CC[C@@](C)([C@H]4CC[C@](O)(CC)[C@H](C)O4)O3)O2)[C@H](C)C[C@@H]1C [Salinomycin, salinomycin]	–	–	–	–	–	10	71.13	100	34.0	127.1
